Laboratory results: patent US20240309015A1, “Methods for the Treatment of Fibrotic Disease” (SHY Therapeutics, LLC, priority 2021, published 2024)

What was measured:
IL-6 = assay: Mouse IL6 Quantification Assay (LPS-stimulated RAW 264.7); format: cell-based; design: dose or concentration left out as unconfirmed; settings: RAW264.7, ELISA, read-out: IL-6: % inh.
KRas wild type = assay: Ras GTP Binding Domain Inhibition Assay, KRas wild type; settings: at 20 μM; for KRas wild type + SOS: % inh.: with SOS; for KRas wild type: % inh.: without SOS
Procedure: (§1) A Ras Superfamily Activity Assay (as disclosed in International Application No. PCT/US2018/038613, filed Jun. 20, 2018, which is incorporated by reference in its entirety) was used as a specific assay to evaluate compounds against the following for the following Ras Superfamily proteins: KRas wild type, KRas Q61H mutant, KRas G12C mutant, KRas G12D mutant, Rac-1, and Rho-A.
(§2) Buffer-I: • 25 mM Tris-HCl, pH 7.4 • 27 mM KCl • 137 mM NaCl • 1 mM MgCl2 • 1 mM DTT
(§3) Buffer-IL: • 50 mM Tris-HCl, pH 7.0 • 1 mM MgCl2 • 1 mM DTT
(§4) The small GTPases proteins: KRas wild type. KRas Q61H mutant, KRas G12C mutant, KRas G12D mutants, Rac-1, and Rho-A were expressed as His-tagged proteins. In addition, the Guanosine nucleotide Exchange Factor (GEF) Sos protein (residues 556-1049) was expressed as a His-tagged protein. In cells, the guanine nucleotide exchange factor Sos protein promotes activation of Ras proteins by stimulating an exchange of GDP for GTP. The inclusion of Sos to the Ras GTP binding domain inhibition assay may be considered as an alternative representation of physiological cellular conditions for evaluating the inhibitory activity of some of the tested small molecules.
(§5) For the assay, all purified small GTPases proteins were diluted in Buffer-I or Buffer-II to a final concentration of 10-30 μg/mL. 200 μL of each diluted protein was added to a nickel-coated 96-well plate and incubated overnight at 4° C. Then the protein solution was discarded and 200 μL of Buffer-I or Buffer-II was added to each well in the presence of 1% DMSO. Compounds to be tested were added to the protein-coated wells at final concentration of 20 μM, and incubated for 3 hours at room temperature with and without 10-30 μg/mL of Sos added to the final hour of the incubation. When performing IC50 measurements a serial dilution of all tested concentrations was added. Then Cy3-GTP or Cy5-GTP was added to each well to a final concentration of 100 nM. The labeled GTP was incubated for 45 minutes at room temperature. Following GTP incubation, wells were washed 3× in Buffer-I or Buffer-II and 200 μL of Buffer-I or Buffer-II was added to each well. Following washes, the amount of bound labeled-GTP was measured using a SpectraMax M3 (Molecular Devices).

TNFα = assay: Mouse TNF Alpha Quantification Assay (LPS-stimulated RAW 264.7); format: cell-based; design: dose or concentration left out as unconfirmed; settings: RAW264.7, ELISA, read-out: TNFα: % inh.
Rho-A = assay: Ras GTP Binding Domain Inhibition Assay, Rho-A; settings: at 20 μM; for Rho-A: % inh.: without SOS; for Rho-A + SOS: % inh.: with SOS
Procedure: as §1, §2, §3, §4, §5

KRas G12D mutant = assay: Ras GTP Binding Domain Inhibition Assay, KRas G12D mutant; settings: at 20 μM; for KRas G12D mutant + SOS: % inh.: with SOS; for KRas G12D mutant: % inh.: without SOS
Procedure: as §1, §2, §3, §4, §5

KRas G12C mutant = assay: Ras GTP Binding Domain Inhibition Assay, KRas G12C mutant; settings: at 20 μM; for KRas G12C mutant + SOS: % inh.: with SOS; for KRas G12C mutant: % inh.: without SOS
Procedure: as §1, §2, §3, §4, §5

| Compound | inhibition (IL-6) | KRas wild type + SOS: % inh. (KRas wild type) | KRas wild type: % inh. (KRas wild type) | inhibition (TNFα) | Rho-A: % inh. (Rho-A) | KRas G12D mutant + SOS: % inh. (KRas G12D mutant; Table 7) | KRas G12D mutant + SOS: % inh. (KRas G12D mutant; Table 8) | KRas G12D mutant: % inh. (KRas G12D mutant; Table 7) | KRas G12D mutant: % inh. (KRas G12D mutant; Table 8) | KRas G12C mutant + SOS: % inh. (KRas G12C mutant) | KRas G12C mutant: % inh. (KRas G12C mutant) | Rho-A + SOS: % inh. (Rho-A) |
| --- | --- | --- | --- | --- | --- | --- | --- | --- | --- | --- | --- | --- |
| COCCn1ccc(-c2sc3nc(-c4nccn4C)nc(N[C@@H]4CC[C@H](OC)C4)c3c2C)n1 (racemic) [Compound 39, rac-N-((1R,3S)-3-Methoxycyclopentyl)-6-(1-(2-methoxyethyl)-1H-pyrazol-3-yl)-5-methyl-2-(1-methyl-1H-imidazol-2-yl)thieno[2,3-d]pyrimidin-4-amine] | 26 to 45% | D (D = 76-100% inhibition) | D (D = 76-100% inhibition) | 0% | C (C = 46-75% inhibition) | D (D = 76-100% inhibition) | D (D = 76-100% inhibition) | C (C = 46-75% inhibition) | C (C = 46-75% inhibition) | D (D = 76-100% inhibition) | D (D = 76-100% inhibition) | – |
| COCC1CN(c2nc(-c3nccn3C)nc3sc(-c4ccn(C(C)C)n4)c(C)c23)CCO1 (racemic) [Compound 15, rac-4-(6-(1-Isopropyl-1H-pyrazol-3-yl)-5-methyl-2-(1-methyl-1H-imidazol-2-yl)thieno[2,3-d]pyrimidin-4-yl)-2-(methoxymethyl)morpholine] | 46 to 75% | D (D = 76-100% inhibition) | D (D = 76-100% inhibition) | 76 to 100% | D (D = 76-100% inhibition) | D (D = 76-100% inhibition) | D (D = 76-100% inhibition) | D (D = 76-100% inhibition) | D (D = 76-100% inhibition) | D (D = 76-100% inhibition) | C (C = 46-75% inhibition) | – |
| COc1cccc(-c2sc3nc(-c4nccn4C)nc(N[C@H]4C[C@H](OC)C4)c3c2C)c1F [Compound 42, 6-(2-Fluoro-3-methoxyphenyl)-N-((1r,3r)-3-methoxycyclobutyl)-5-methyl-2-(1-methyl-1H-imidazol-2-yl)thieno[2,3-d]pyrimidin-4-amine] | 46 to 75% | D (D = 76-100% inhibition) | D (D = 76-100% inhibition) | 0% | C (C = 46-75% inhibition) | D (D = 76-100% inhibition) | D (D = 76-100% inhibition) | B (B = 26-45% inhibition) | B (B = 26-45% inhibition) | D (D = 76-100% inhibition) | C (C = 46-75% inhibition) | – |
| COc1cccc(-c2sc3nc(-c4nccn4C)nc(N[C@@H]4CC[C@@H](OC)C4)c3c2C)c1F (racemic) [Compound 43, rac-6-(2-Fluoro-3-methoxyphenyl)-N-((1R,3R)-3-methoxycyclopentyl)-5-methyl-2-(1-methyl-1H-imidazol-2-yl)thieno[2,3-d]pyrimidin-4-amine] | 76 to 100% | D (D = 76-100% inhibition) | B (B = 26-45% inhibition) | 26 to 45% | B (B = 26-45% inhibition) | D (D = 76-100% inhibition) | D (D = 76-100% inhibition) | A (A = 1-25% inhibition) | A (A = 1-25% inhibition) | D (D = 76-100% inhibition) | B (B = 26-45% inhibition) | – |
| CO[C@H]1CNC[C@@H](Nc2nc(-c3nccn3C)nc3sc(-c4ccn(C(C)C)n4)cc23)C1 [Compound 28, 6-(1-Isopropyl-1H-pyrazol-3-yl)-N-((3S,5R)-5-methoxypiperidin-3-yl)-2-(1-methyl-1H-imidazol-2-yl)thieno[2,3-d]pyrimidin-4-amine] | 76 to 100% | – | – | 46 to 75% | – | – | – | – | – | – | – | – |
| CO[C@H]1C[C@H](CNc2nc(-c3nccn3C)nc3sc(-c4ccn(C(C)C)n4)c(C)c23)C1 [Compound 16, 6-(1-Isopropyl-1H-pyrazol-3-yl)-N-(((1r,3r)-3-methoxycyclobutyl)methyl)-5-methyl-2-(1-methyl-1H-imidazol-2-yl)thieno[2,3-d]pyrimidin-4-amine] | 46 to 75% | C (C = 46-75% inhibition) | D (D = 76-100% inhibition) | 1 to 25% | C (C = 46-75% inhibition) | C (C = 46-75% inhibition) | C (C = 46-75% inhibition) | B (B = 26-45% inhibition) | B (B = 26-45% inhibition) | C (C = 46-75% inhibition) | C (C = 46-75% inhibition) | – |
| COc1cccc(-c2sc3nc(-c4nccn4C)nc(NC4CCC(OC)C4)c3c2C)c1F (racemic) [Compound 10, rac-6-(2-Fluoro-3-methoxyphenyl)-N-((1R,3S)-3-methoxycyclopentyl)-5-methyl-2-(1-methyl-1H-imidazol-2-yl)thieno[2,3-d]pyrimidin-4-amine and rac-6-(2-Fluoro-3-methoxyphenyl)-N-((1R,3R)-3-methoxycyclopentyl)-5-methyl-2-(1-methyl-1H-imidazol-2-yl)thieno[2,3-d]pyrimidin-4-amine] | – | C (C = 46-75% inhibition) | C (C = 46-75% inhibition) | – | D (D = 76-100% inhibition) | C (C = 46-75% inhibition) | C (C = 46-75% inhibition) | D (D = 76-100% inhibition) | D (D = 76-100% inhibition) | C (C = 46-75% inhibition) | D (D = 76-100% inhibition) | D (D = 76-100% inhibition) |
| COC1CCN(c2nc(-c3nccn3C)nc3sc(-c4ccn(C)n4)c(-c4ccccc4)c23)CC1 [Compound 6, 4-(4-Methoxypiperidin-1-yl)-2-(1-methyl-1H-imidazol-2-yl)-6-(1-methyl-1H-pyrazol-3-yl)-5-phenylthieno[2,3-d]pyrimidine] | – | B (B = 26-45% inhibition) | 0 (0 = 0% inhibition) | – | 0 (0 = 0% inhibition) | B (B = 26-45% inhibition) | B (B = 26-45% inhibition) | B (B = 26-45% inhibition) | B (B = 26-45% inhibition) | C (C = 46-75% inhibition) | B (B = 26-45% inhibition) | 0 (0 = 0% inhibition) |
